Test results reported in ChEMBL document CHEMBL6078677, “Discovery and optimization of tetrahydroacridine derivatives as a novel class of antibiotics against multidrug-resistant Gram-positive pathogens by targeting type I signal peptidase and disrupting bacterial membrane” (Eur J Med Chem, 2025).
≈ marks a conversion by molar mass, not a printed value. Numbered stars: 1 amine (or outer) side, 2 acyl side, 3 side chain; on linkers, the order of the positions; unused ones are H or OH. Bridge positions count the residues as written; N and C are the ends. Square brackets hold non-standard residues; d marks the D form. Side chains are listed from the residue outwards. Peptide text beside a SMILES is read from it. * marks the point of attachment. X1 = C[C@@H](O)[C@H](CN([C@@H](CCN)C(=O)[*:2])[*:1])N[*:3]; Octanoyl(6-Me) = CCC(C)CCCCC(=O)*; Dab = NCC[C@H](N)C(=O)O

How the values were obtained:
[1] = test system: Streptococcus suis; test: Antimicrobial activity against Streptococcus suis P1/7 assessed as inhibition of visible growth of bacteria incubated for 20 hrs by broth microdilution method; format: functional
[2] = test system: Pseudomonas aeruginosa; test: Antimicrobial activity against Pseudomonas aeruginosa PA14 assessed as inhibition of visible growth of bacteria incubated for 20 hrs by broth microdilution method; format: functional
[3] = test system: Enterococcus faecium; test: Antimicrobial activity against Enterococcus faecium QF31 harboring erythromycin resistance rRNA methylase B and chloramphenicol-florfenicol resistance methylase assessed as inhibition of visible growth of bacteria incubated for 20 hrs by broth microdilution method; format: functional
[4] = test system: Staphylococcus aureus; test: Antimicrobial activity against Staphylococcus aureus YZSA-15 harboring erythromycin resistance rRNA methylase C and vancomycin resistance locus assessed as inhibition of visible growth of bacteria incubated for 20 hrs by broth microdilution method; format: functional
[5] = test system: Staphylococcus aureus; test: Antimicrobial activity against Staphylococcus aureus YZSA-21 harboring erythromycin resistance rRNA methylase C assessed as inhibition of visible growth of bacteria incubated for 20 hrs by broth microdilution method; format: functional
[6] = test system: Staphylococcus aureus; test: Antimicrobial activity against Staphylococcus aureus YZSA-24 harboring erythromycin resistance rRNA methylase C and methicillin resistance gene resistance locus assessed as inhibition of visible growth of bacteria incubated for 20 hrs by broth microdilution method; format: functional
[7] = test system: Pseudomonas aeruginosa; test: Antimicrobial activity against Pseudomonas aeruginosa PA01 assessed as inhibition of visible growth of bacteria incubated for 20 hrs by broth microdilution method; format: functional
[8] = test system: Streptococcus pyogenes; test: Antimicrobial activity against Streptococcus pyogenes DL02 harboring erythromycin-resistance rRNA methylase B assessed as inhibition of visible growth of bacteria incubated for 20 hrs by broth microdilution method; format: functional
[9] = test system: Enterococcus faecium; test: Antimicrobial activity against Enterococcus faecium MC38 harboring erythromycin resistance rRNA methylase B and oxazolidinone-phenicol transferable resistance gene assessed as inhibition of visible growth of bacteria incubated for 20 hrs by broth microdilution method; format: functional
[10] = test system: Enterococcus faecium; test: Antimicrobial activity against Enterococcus faecium HFY01 assessed as inhibition of visible growth of bacteria incubated for 20 hrs by broth microdilution method; format: functional
[11] = test system: Enterococcus faecalis; test: microbe, parasite or virus in culture; format: functional; details: SF23-1, time 20 hrs
Description: Antimicrobial activity against Enterococcus faecalis SF23-1 harboring erythromycin-resistance rRNA methylase B, tetracycline efflux protein L and chloramphenicol-florfenicol resistance methylase assessed as inhibition of visible growth of bacteria incubated for 20 hrs by broth microdilution method

[12] = test system: Salmonella enteritidis; test: Antimicrobial activity against Salmonella enteritis S1 assessed as inhibition of visible growth of bacteria incubated for 20 hrs by broth microdilution method; format: functional, Salmonella enterica subsp. enterica serovar Enteritidis; details: Salmonella enterica
[13] = test system: Enterococcus faecalis; test: Antimicrobial activity against Enterococcus faecalis JH2-2 assessed as inhibition of visible growth of bacteria incubated for 20 hrs by broth microdilution method; format: functional
[14] = test system: Acinetobacter baumannii; test: Antimicrobial activity against Acinetobacter baumannii AB11 assessed as inhibition of visible growth of bacteria incubated for 20 hrs by broth microdilution method; format: functional
[15] = test system: Acinetobacter baumannii; test: Antimicrobial activity against Acinetobacter baumannii 7979 assessed as inhibition of visible growth of bacteria incubated for 20 hrs by broth microdilution method; format: functional
[16] = test system: Enterococcus faecalis; test: Antimicrobial activity against Enterococcus faecalis J2 harboring erythromycin-resistance rRNA methylase B and oxazolidinone phenicol transferable resistance gene assessed as inhibition of visible growth of bacteria incubated for 20 hrs by broth microdilution method; format: functional
[17] = test system: Enterococcus faecalis; test: Antimicrobial activity against Enterococcus faecalis ES01 harboring erythromycin-resistance rRNA methylase B and vanB-type vancomycin-resistance locus assessed as inhibition of visible growth of bacteria incubated for 20 hrs by broth microdilution method; format: functional
[18] = test system: Streptococcus agalactiae; test: Antimicrobial activity against Streptococcus agalactiae DL03 harboring erythromycin-resistance rRNA methylase B assessed as inhibition of visible growth of bacteria incubated for 20 hrs by broth microdilution method; format: functional
[19] = test system: Staphylococcus aureus; test: microbe, parasite or virus in culture; format: functional; details: M92-1, time 20 hrs
Description: Antimicrobial activity against Staphylococcus aureus M92-1 harboring erythromycin resistance rRNA methylase B, tetracycline efflux protein L and oxazolidinone-phenicol transferable resistance gene assessed as inhibition of visible growth of bacteria incubated for 20 hrs by broth microdilution method

[20] = test system: Klebsiella pneumoniae; test: Antimicrobial activity against Klebsiella pneumoniae 9-1 assessed as inhibition of visible growth of bacteria incubated for 20 hrs by broth microdilution method; format: functional
[21] = test system: Staphylococcus aureus; test: Antimicrobial activity against Staphylococcus aureus ATCC 29213 assessed as inhibition of visible growth of bacteria incubated for 20 hrs by broth microdilution method; format: functional
[22] = test system: Streptococcus suis; test: microbe, parasite or virus in culture; format: functional; details: SH0918, time 20 hrs
Description: Antimicrobial activity against Streptococcus suis SH0918 harboring erythromycin-resistance rRNA methylase B, tetracycline efflux protein O and oxazolidinone phenicol transferable resistance gene assessed as inhibition of visible growth of bacteria incubated for 20 hrs by broth microdilution method

[23] = test system: Staphylococcus aureus; test: microbe, parasite or virus in culture; format: functional; details: M147-2, time 20 hrs
Description: Antimicrobial activity against Staphylococcus aureus M147-2 harboring erythromycin resistance rRNA methylase B, tetracycline efflux protein L and chloramphenicol-florfenicol resistance methylase assessed as inhibition of visible growth of bacteria incubated for 20 hrs by broth microdilution method

[24] = test system: Escherichia coli; test: Antimicrobial activity against Escherichia coli ATCC 25922 assessed as inhibition of visible growth of bacteria incubated for 20 hrs by broth microdilution method; format: functional
[25] = target: Signal peptidase I (Escherichia coli K-12, UniProt P00803); test: Binding affinity to recombinant 6His-tagged Escherichia coli LepB (77 to 324 residues) extracted from Escherichia coli BL21 (DE3) cells assessed as dissociation constant by MST analysis
Sequence of Signal peptidase I (P00803 whole entry, the tested form may be a part): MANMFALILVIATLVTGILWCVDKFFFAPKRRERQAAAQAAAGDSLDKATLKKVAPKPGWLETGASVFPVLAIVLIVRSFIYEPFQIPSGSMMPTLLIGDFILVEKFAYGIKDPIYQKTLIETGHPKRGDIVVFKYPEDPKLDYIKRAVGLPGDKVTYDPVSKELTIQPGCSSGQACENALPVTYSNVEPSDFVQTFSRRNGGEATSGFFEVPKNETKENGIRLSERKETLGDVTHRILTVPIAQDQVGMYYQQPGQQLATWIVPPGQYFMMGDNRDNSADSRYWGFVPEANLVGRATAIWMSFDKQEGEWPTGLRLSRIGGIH

SMILES | MIC [1] [µg/mL] | MIC [2] [µg/mL] | MIC [3] [µg/mL] | MIC [4] [µg/mL] | MIC [5] [µg/mL] | MIC [6] [µg/mL] | MIC [7] [µg/mL] | MIC [8] [µg/mL] | MIC [9] [µg/mL] | MIC [10] [µg/mL] | MIC [11] [µg/mL] | MIC [12] [µg/mL] | MIC [13] [µg/mL] | MIC [14] [µg/mL] | MIC [15] [µg/mL] | MIC [16] [µg/mL] | MIC [17] [µg/mL] | MIC [18] [µg/mL] | MIC [20] [µg/mL] | MIC [21] [µg/mL] | also measured
CNC(C)[C@@H]1CC[C@@H](N)[C@@H](O[C@H]2[C@H](O)[C@@H](O[C@H]3OC[C@](C)(O)[C@H](NC)[C@H]3O)[C@H](N)C[C@@H]2N)O1.CN[C@@H]1[C@@H](O)[C@@H](O[C@@H]2[C@@H](O)[C@H](O[C@H]3O[C@H](C(C)N)CC[C@H]3N)[C@@H](N)C[C@H]2N)OC[C@]1(C)O.CN[C@@H]1[C@@H](O)[C@@H](O[C@@H]2[C@@H](O)[C@H](O[C@H]3O[C@H](CN)CC[C@H]3N)[C@@H](N)C[C@H]2N)OC[C@]1(C)O (stereo partly specified) | 4 | < 0.06 | > 32 | 0.5 | 0.5 | 0.5 | 0.125 | 1 | > 32 | < 0.06 | 8 | 0.25 | 4 | < 0.06 | > 32 | 8 | > 32 | 16 | 0.5 | 1 | MIC [19]: > 32 µg/mL; MIC [22]: > 32 µg/mL; MIC [23]: 0.5 µg/mL
CC(C)CCCCC(=O)N[C@@H](CCN)C(=O)N[C@@H](CN[C@@H](CCN)C(=O)N[C@H]1CCNC(=O)[C@H]([C@@H](C)O)NC(=O)[C@H](CCN)NC(=O)[C@H](CCN)NC(=O)[C@H](CC(C)C)NC(=O)[C@@H](CC(C)C)NC(=O)[C@H](CCN)NC1=O)[C@@H](C)O.CCC(C)CCCCC(=O)N[C@@H](CCN)C(=O)N[C@@H](CN[C@@H](CCN)C(=O)N[C@H]1CCNC(=O)[C@H]([C@@H](C)O)NC(=O)[C@H](CCN)NC(=O)[C@H](CCN)NC(=O)[C@H](CC(C)C)NC(=O)[C@@H](CC(C)C)NC(=O)[C@H](CCN)NC1=O)[C@@H](C)O (stereo partly drawn) (H-[X1]([Dab-Octanoyl(6-Me)])[Dab][Dab][dL]L[Dab][Dab]T; lactam 2-C) | – | < 0.06 | – | – | – | – | 0.125 | – | – | – | – | 0.5 | – | 8 | < 0.06 | – | – | – | 0.5 | – | MIC [24]: 1 µg/mL
CC1C/C(=C\c2ccc(-c3cccc(Cl)c3)o2)c2nc3ccccc3c(C(=O)O)c2C1 (racemic) | 32 (≈ 74.4 µM) | – | 16 (≈ 37.2 µM) | – | – | – | – | – | – | – | > 64 | – | – | – | – | – | – | – | – | 8 (≈ 18.6 µM) | Kd [25]: 42.1 µM
C[C@H]1[C@H](NC(=O)/C(=N\OC(C)(C)C(=O)O)c2csc(N)n2)C(=O)N1S(=O)(=O)O [AZTREONAM] | – | 4 (≈ 9.19 µM) | – | – | – | – | 2 (≈ 4.59 µM) | – | – | – | – | 2 (≈ 4.59 µM) | – | > 32 | > 32 | – | – | – | 2 (≈ 4.59 µM) | – | MIC [24]: 0.25 µg/mL (≈ 0.574 µM)
CO[C@@]1(NC(=O)Cc2cccs2)C(=O)N2C(C(=O)O)=C(COC(N)=O)CS[C@@H]21 [CEFOXITIN] | 1 (≈ 2.34 µM) | > 32 | > 32 | 2 (≈ 4.68 µM) | 4 (≈ 9.36 µM) | 32 (≈ 74.9 µM) | > 32 | 1 (≈ 2.34 µM) | > 32 | 8 (≈ 18.7 µM) | > 32 | 32 (≈ 74.9 µM) | > 32 | 16 (≈ 37.4 µM) | > 32 | > 32 | > 32 | 16 (≈ 37.4 µM) | > 32 | 1 (≈ 2.34 µM) | MIC [24]: 0.25 µg/mL (≈ 0.585 µM); MIC [19]: 4 µg/mL (≈ 9.36 µM); MIC [22]: 8 µg/mL (≈ 18.7 µM); MIC [23]: 4 µg/mL (≈ 9.36 µM)
O=C(O)c1cn(C2CC2)c2cc(N3CCNCC3)c(F)cc2c1=O [CIPROFLOXACIN] | 0.125 (≈ 0.377 µM) | – | 2 (≈ 6.04 µM) | 0.25 (≈ 0.754 µM) | 0.5 (≈ 1.51 µM) | 4 (≈ 12.1 µM) | – | 1 (≈ 3.02 µM) | 8 (≈ 24.1 µM) | 1 (≈ 3.02 µM) | 16 (≈ 48.3 µM) | – | 0.5 (≈ 1.51 µM) | – | – | 0.5 (≈ 1.51 µM) | > 32 | 16 (≈ 48.3 µM) | – | 1 (≈ 3.02 µM) | MIC [22]: 16 µg/mL (≈ 48.3 µM)
